From US20060058275A1, “Processes for preparing stabilized, highly pure rocuronium bromide” (priority 2004, published 2006)

Legend:
Format in all cases: physicochemical
[1] = decomposition of rocuronium bromide in water at room temperature; settings: aqueous solution, in 24 hours
Excerpt: While freeze drying of the aqueous solution did reduce the isobutyl acetate level to an acceptable level of 0.26%, the impurity levels rose to 0.33%. […] This inherent instability in aqueous solution may explain thc observed rise in the impurities level in our hands.

[2] = hygroscopicity test at relative humidity of about 45%; settings: within 24 hours, sample containing 3.1% acetic acid (stabilized solid of the invention)
Procedure: In another aspect, the present invention relates to an improved process for preparing a stable solid comprising substantially pure rocuronium bromide, which is substantially non-hygroscopic, because when subjected to hygroscopisity test at relative humidity of about 45%, a sample containing 3.1% acetic acid absorbed only about 2% water within 24 hours.

[3] = nature of product freeze dried from unbuffered degassed water (Example 5); settings: Example 5: dissolved in degassed water and freeze dried, no buffer
Procedure: Rocuronium bromide (2 grams) prepared according to example 1 and dried in a manner similar to entries 1 and 2 in table 2 (see example 4), was dissolved in degassed water (30 ml) and freeze dried.

Structure (SMILES): C=CC[N+]1(C2CC3C4CC[C@H]5C[C@H](O)C(N6CCOCC6)C[C@]5(C)C4CC[C@]3(C)[C@H]2OC(C)=O)CCCC1.[Br-] (stereo partly drawn) [rocuronium bromide, 1-[(2β,3α,5α,16β,17β)-17-acetoxy-3-hydroxy-2-(4-morpholinyl)-androstan-16-yl-]-1-(2-propenyl)pyrrolidinium bromide]
- decomposition rate in water [1]: 0.25-0.5%
- water absorbed [2]: about 2%
- hygroscopicity of product [3]: highly hygroscopic
